Values quoted from earlier work in patent US20110301189A1, “STABLE PHARMACEUTICAL COMPOSITIONS OF RAPAMYCIN ESTERS” (FRESENIUS KABI ONCOLOGY LTD., priority 2010, published 2011).

Details: aqueous solvents

aqueous solubility: less than 1 μg/ml
Compound: COC1CC2CCC(C)C(O)(O2)C(=O)C(=O)N2CCCCC2C(=O)OC(C(C)CC2CCC(OC(=O)C(C)(CO)CO)C(OC)C2)CC(=O)C(C)/C=C(\C)C(O)C(OC)C(=O)C(C)CC(C)/C=C/C=C/C=C/1C (stereo not shown) [Rapamycin 42-ester with 3-hydroxy-2-(hydroxymethyl)-2-methylpropionic acid]
